Assay results taken from US6737383B1, “Herbicidal oxadiazolidines” (priority 1999, dated 2004).

Tests used:
wild oat = test: Test B pre/postemergence wild oat; assay type: in vivo, Avena fatua
Method in brief: (§1)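 Herbicidal effect was estimated by eye on a ten-point control scale after plants spent twelve to sixteen days in a greenhouse following soil or foliar treatment. Foliar sprays targeted plants at one to four leaves; all doses were formulated in a non-phytotoxic solvent with surfactant.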

velvetleaf = test: Test B pre/postemergence velvetleaf; assay type: in vivo, Abutilon theophrasti
Method in brief: as §1

duck salad = test: Test B flood test duck salad; assay type: in vivo, Heteranthera limosa; conditions: for Plant response rating, Ducksalad: scale 0 to 10, 0 is no effect, 10 is complete control; for Ducksalad plant response rating: scale of 0 to 10 where 0 is no effect and 10 is complete control
Method in brief: (§2)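 Plants were grown to the 2-leaf stage before treatment with test chemical, then held in a greenhouse for twelve to sixteen days. Injury was visually rated against untreated controls on a 0–10 scale, where 0 is no effect and 10 is complete control.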

corn = test: Test B pre/postemergence corn; assay type: in vivo, Zea mays
Method in brief: as §1

smallflower flatsedge = test: Test B flood test smallflower flatsedge; assay type: in vivo, Cyperus difformis
Method in brief: as §2

rice = test: Test B flood test rice; assay type: in vivo, Oryza sativa
Method in brief: as §2

bedstraw = test: Test B pre/postemergence bedstraw; assay type: in vivo, Galium aparine; conditions: Postemergence; for Plant response rating, Bedstraw: scale 0 to 10, 0 is no effect, 10 is complete control; for Bedstraw plant response rating: scale of 0 to 10 where 0 is no effect and 10 is complete control
Method in brief: as §1

sugar beet = test: Test B pre/postemergence sugar beet; assay type: in vivo, Beta vulgaris
Method in brief: as §1

crabgrass = test: Test B pre/postemergence crabgrass; assay type: in vivo, Digitaria sanguinalis
Method in brief: as §1

purple nutsedge = test: Test B pre/postemergence purple nutsedge; assay type: in vivo, Cyperus rotundus
Method in brief: as §1

wheat = test: Test B pre/postemergence wheat; assay type: in vivo, Triticum aestivum
Method in brief: as §1

blackgrass = test: Test B pre/postemergence blackgrass; assay type: in vivo, Alopecurus myosuroides
Method in brief: as §1

cocklebur = test: Test B pre/postemergence cocklebur; assay type: in vivo, Xanthium strumarium
Method in brief: as §1

morningglory = test: Test B pre/postemergence morningglory; assay type: in vivo, Ipomoea hederacea
Method in brief: as §1

soybean = test: Test B pre/postemergence soybean; assay type: in vivo, Glycine max
Method in brief: as §1

rape = test: Test B pre/postemergence rape; assay type: in vivo, Brassica napus
Method in brief: as §1

pigweed = test: Test B pre/postemergence pigweed; assay type: in vivo, Amaranthus retroflexus
Method in brief: as §1

giant foxtail = test: Test B pre/postemergence giant foxtail; assay type: in vivo, Setaria faberii
Method in brief: as §1

surinam grass = test: Test B pre/postemergence surinam grass; assay type: in vivo, Brachiaria decumbens
Method in brief: as §1

bamyardgrass = test: Test B flood test barnyardgrass; assay type: in vivo, Echinochloa crus-galli; conditions: for Plant response rating, Barnyardgrass: scale 0 to 10, 0 is no effect, 10 is complete control; for Barnyardgrass plant response rating: scale of 0 to 10 where 0 is no effect and 10 is complete control
Method in brief: as §2

[1] = Postemergence, Rate 500 g/ha, scale of 0 to 10 where 0 is no effect and 10 is complete control
[2] = Preemergence, Rate 62 g/ha, scale 0 to 10 (0 no effect, 10 complete control)
[3] = Preemergence, Rate 125 g/ha, scale of 0 to 10 where 0 is no effect and 10 is complete control
[4] = Preemergence, Rate 250 g/ha, scale 0 to 10, 0 is no effect, 10 is complete control
[5] = Preemergence, Rate 500 g/ha, scale 0 to 10, 0 is no effect, 10 is complete control
[6] = Postemergence, Rate 250 g/ha, scale 0 to 10, 0 is no effect, 10 is complete control
[7] = Postemergence (flood test), Rate 125 g/ha
[8] = Postemergence section (flood test species), Rate 500 g/ha
[9] = Rate 62 g/ha, Postemergence (flood test species)
[10] = flood test species, listed under Postemergence, Rate 250 g/ha
[11] = Postemergence, Rate 125 g/ha, scale 0 to 10, 0 is no effect, 10 is complete control
[12] = Rate 62 g/ha, Postemergence, scale of 0 to 10 where 0 is no effect and 10 is complete control
[13] = Postemergence section (flood test species), Rate 500 g/ha, scale of 0 to 10 where 0 is no effect and 10 is complete control
[14] = flood test species, listed under Postemergence, Rate 250 g/ha, scale 0 to 10, 0 is no effect, 10 is complete control
[15] = Preemergence, Rate 250 g/ha, scale of 0 to 10 where 0 is no effect and 10 is complete control

CC(C)Cn1c(=O)on(C(=O)N(c2ccc(Cl)cc2)C(C)C)c1=O [Compound 417]
Wild oats plant response rating (wild oat; [1]): 0 | Plant response rating, Wild oats (wild oat; [2]): 0 | Plant response rating, Wild oats (wild oat; [3]): 0 | Wild oats plant response rating (wild oat; [4]): 2 | Wild oats plant response rating (wild oat; [5]): 4 | Plant response rating, Velvetleaf (velvetleaf; [6]): 0 | Velvetleaf plant response rating (velvetleaf; [1]): 0 | Plant response rating, Velvetleaf (velvetleaf; [2]): 0 | Plant response rating, Velvetleaf (velvetleaf; [3]): 0 | Velvetleaf plant response rating (velvetleaf; [4]): 2 | Velvetleaf plant response rating (velvetleaf; [5]): 6 | Plant response rating, Ducksalad (duck salad; [7]): 0 | Ducksalad plant response rating (duck salad; [8]): 3 | Ducksalad plant response rating (duck salad; [9]): 0 | Plant response rating, Ducksalad (duck salad; [10]): 2 | Plant response rating, Corn (corn; [11]): 0 | Plant response rating, Corn (corn; [6]): 0 | Corn plant response rating (corn; [1]): 0 | Plant response rating, Corn (corn; [2]): 0 | Plant response rating, Corn (corn; [3]): 0 | Corn plant response rating (corn; [4]): 0 | Corn plant response rating (corn; [5]): 0 | Corn plant response rating (corn; [12]): 0 | S. Flatsedge plant response rating (smallflower flatsedge; [13]): 9 | Plant response rating, S. Flatsedge (smallflower flatsedge; [14]): 9 | Rice plant response rating (rice; [13]): 0 | Plant response rating, Rice (rice; [14]): 0 | Plant response rating, Bedstraw (bedstraw; Rate 125 g/ha): 0 | Plant response rating, Bedstraw (bedstraw; Rate 250 g/ha): 0 | Bedstraw plant response rating (bedstraw; Rate 500 g/ha): 6 | Bedstraw plant response rating (bedstraw; Rate 62 g/ha): 0 | Plant response rating, Sugarbeets (sugar beet; [6]): 0 | Sugarbeets plant response rating (sugar beet; [1]): 6 | Plant response rating, Sugarbeets (sugar beet; [2]): 0 | Plant response rating, Sugarbeets (sugar beet; [3]): 0 | Sugarbeets plant response rating (sugar beet; [4]): 2 | Sugarbeets plant response rating (sugar beet; [5]): 6 | Plant response rating, Crabgrass (crabgrass; [11]): 0 | Plant response rating, Crabgrass (crabgrass; [6]): 2 | Crabgrass plant response rating (crabgrass; [1]): 2 | Plant response rating, Crabgrass (crabgrass; [2]): 6 | Plant response rating, Crabgrass (crabgrass; [3]): 9 | Crabgrass plant response rating (crabgrass; [4]): 9 | Crabgrass plant response rating (crabgrass; [5]): 10 | Crabgrass plant response rating (crabgrass; [12]): 0 | Plant response rating, Nutsedge (purple nutsedge; [6]): 0 | Nutsedge plant response rating (purple nutsedge; [1]): 0 | Plant response rating, Nutsedge (purple nutsedge; [2]): 0 | Plant response rating, Nutsedge (purple nutsedge; [3]): 0 | Nutsedge plant response rating (purple nutsedge; [4]): 0 | Nutsedge plant response rating (purple nutsedge; [5]): 0 | Wheat plant response rating (wheat; [1]): 0 | Plant response rating, Wheat (wheat; [2]): 0 | Plant response rating, Wheat (wheat; [3]): 0 | Wheat plant response rating (wheat; [4]): 0 | Wheat plant response rating (wheat; [5]): 2 | Plant response rating, Blackgrass (blackgrass; [11]): 0 | Plant response rating, Blackgrass (blackgrass; [6]): 0 | Blackgrass plant response rating (blackgrass; [1]): 0 | Plant response rating, Blackgrass (blackgrass; [2]): 3 | Blackgrass plant response rating (blackgrass; [15]): 7 | Blackgrass plant response rating (blackgrass; [5]): 9 | Blackgrass plant response rating (blackgrass; [12]): 0 | Plant response rating, Cocklebur (cocklebur; [11]): 0 | Plant response rating, Cocklebur (cocklebur; [6]): 0 | Cocklebur plant response rating (cocklebur; [1]): 0 | Plant response rating, Cocklebur (cocklebur; [2]): 0 | Plant response rating, Cocklebur (cocklebur; [3]): 0 | Cocklebur plant response rating (cocklebur; [4]): 0 | Cocklebur plant response rating (cocklebur; [5]): 0 | Cocklebur plant response rating (cocklebur; [12]): 0 | Plant response rating, Morningglory (morningglory; [6]): 9 | Morningglory plant response rating (morningglory; [1]): 9 | Plant response rating, Morningglory (morningglory; [2]): 0 | Plant response rating, Morningglory (morningglory; [3]): 0 | Morningglory plant response rating (morningglory; [4]): 0 | Morningglory plant response rating (morningglory; [5]): 0 | Plant response rating, Soybean (soybean; [6]): 4 | Soybean plant response rating (soybean; [1]): 6 | Plant response rating, Soybean (soybean; [2]): 0 | Plant response rating, Soybean (soybean; [3]): 0 | Soybean plant response rating (soybean; [4]): 0 | Soybean plant response rating (soybean; [5]): 0 | Plant response rating, Rape (rape; [6]): 0 | Rape plant response rating (rape; [1]): 2 | Plant response rating, Rape (rape; [2]): 0 | Plant response rating, Rape (rape; [3]): 0 | Rape plant response rating (rape; [4]): 5 | Rape plant response rating (rape; [5]): 6 | Plant response rating, Redroot pigweed (pigweed; [6]): 0 | Redroot pigweed plant response rating (pigweed; [1]): 3 | Plant response rating, Redroot pigweed (pigweed; [2]): 0 | Plant response rating, Redroot pigweed (pigweed; [3]): 0 | Redroot pigweed plant response rating (pigweed; [4]): 4 | Redroot pigweed plant response rating (pigweed; [5]): 10 | Plant response rating, Giant foxtail (giant foxtail; [11]): 0 | Plant response rating, Giant foxtail (giant foxtail; [6]): 1 | Giant foxtail plant response rating (giant foxtail; [1]): 8 | Plant response rating, Giant foxtail (giant foxtail; [2]): 4 | Plant response rating, Giant foxtail (giant foxtail; [3]): 9 | Giant foxtail plant response rating (giant foxtail; [4]): 10 | Giant foxtail plant response rating (giant foxtail; [5]): 10 | Giant foxtail plant response rating (giant foxtail; [12]): 0 | Plant response rating, B. signalgrass (surinam grass; [11]): 0 | Plant response rating, B. signalgrass (surinam grass; [6]): 0 | B. signalgrass plant response rating (surinam grass; [1]): 0 | Plant response rating, B. signalgrass (surinam grass; [2]): 2 | Plant response rating, B. signalgrass (surinam grass; [3]): 3 | B. signalgrass plant response rating (surinam grass; [15]): 7 | B. signalgrass plant response rating (surinam grass; Preemergence, Rate 500 g/ha, scale of 0 to 10 where 0 is no effect and 10 is complete control): 7 | B. signalgrass plant response rating (surinam grass; [12]): 0 | Plant response rating, Barnyardgrass (bamyardgrass; [7]): 0 | Barnyardgrass plant response rating (bamyardgrass; [8]): 8 | Barnyardgrass plant response rating (bamyardgrass; [9]): 0 | Plant response rating, Barnyardgrass (bamyardgrass; [10]): 0
